From publication PMC9481151, “Discovery of new symmetrical and asymmetrical nitrile-containing 1,4-dihydropyridine derivatives as dual kinases and P-glycoprotein inhibitors: synthesis, in vitro assays, and in silico studies” (Journal of Enzyme Inhibition and Medicinal Chemistry, 2022)

Tests used:
OVCAR-3 = test: NCI single dose (10 µM) SRB screen; type: cell-based, human; conditions: ovarian cancer, 48 h
Aspergillus flavus = test: Agar well diffusion method
TK-10 = test: NCI single dose (10 µM) SRB screen; type: cell-based, human; conditions: renal cancer, 48 h
NCI-H322M = test: NCI single dose (10 µM) SRB screen; type: cell-based; conditions: non-small cell lung cancer, 48 h
NCI-H23 = test: NCI single dose (10 µM) SRB screen; type: cell-based, human; conditions: non-small cell lung cancer, 48 h
KM12 = test: NCI single dose (10 µM) SRB screen; type: cell-based, human; conditions: colon cancer, 48 h
SK-OV-3 = test: NCI single dose (10 µM) SRB screen; type: cell-based, human; conditions: ovarian cancer, 48 h
CCRF-CEM = test: NCI single dose (10 µM) SRB screen; type: cell-based, human; conditions: leukaemia, 48 h
Staphylococcus aureus = test: Agar well diffusion method
SNB-19 = test: NCI single dose (10 µM) SRB screen; type: cell-based, human; conditions: CNS cancer, 48 h
SN12C = test: NCI single dose (10 µM) SRB screen; type: cell-based, human; conditions: renal cancer, 48 h
UO-31 = test: NCI single dose (10 µM) SRB screen; type: cell-based, human; conditions: renal cancer, 48 h
BT-549 = test: NCI single dose (10 µM) SRB screen; type: cell-based, human; conditions: breast cancer, 48 h
Candida albicans = test: Agar well diffusion method
NCI-H226 = test: NCI single dose (10 µM) SRB screen; type: cell-based, human; conditions: non-small cell lung cancer, 48 h
NCI-H522 = test: NCI single dose (10 µM) SRB screen; type: cell-based, human; conditions: non-small cell lung cancer, 48 h
HCT-116 = test: NCI single dose (10 µM) SRB screen; type: cell-based, human; conditions: colon cancer, 48 h
OVCAR-5 = test: NCI single dose (10 µM) SRB screen; type: cell-based, human; conditions: ovarian cancer, 48 h
U251 = test: NCI single dose (10 µM) SRB screen; type: cell-based, human; conditions: CNS cancer, 48 h
HCC-2998 = test: NCI single dose (10 µM) SRB screen; type: cell-based, human; conditions: colon cancer, 48 h
ACHN = test: NCI single dose (10 µM) SRB screen; type: cell-based, human; conditions: renal cancer, 48 h
PC-3 = test: NCI single dose (10 µM) SRB screen; type: cell-based, human; conditions: prostate cancer, 48 h
T-47D = test: NCI single dose (10 µM) SRB screen; type: cell-based, human; conditions: breast cancer, 48 h
COLO 205 = test: NCI single dose (10 µM) SRB screen; type: cell-based, human; conditions: colon cancer, 48 h
CAKI-1 = test: NCI single dose (10 µM) SRB screen; type: cell-based, human; conditions: renal cancer, 48 h
HS578T = test: NCI single dose (10 µM) SRB screen; type: cell-based, human; conditions: breast cancer, 48 h
SF-295 = test: NCI single dose (10 µM) SRB screen; type: cell-based, human; conditions: CNS cancer, 48 h
UACC-257 = test: NCI single dose (10 µM) SRB screen; type: cell-based, human; conditions: melanoma, 48 h
Pseudomonas aeruginosa = test: Agar well diffusion method
MCF7 = test: NCI single dose (10 µM) SRB screen; type: cell-based, human; conditions: breast cancer, 48 h
UACC-62 = test: NCI single dose (10 µM) SRB screen; type: cell-based, human; conditions: melanoma, 48 h
HOP-92 = test: NCI single dose (10 µM) SRB screen; type: cell-based, human; conditions: non-small cell lung cancer, 48 h
OVCAR-4 = test: NCI single dose (10 µM) SRB screen; type: cell-based, human; conditions: ovarian cancer, 48 h
SR = test: NCI single dose (10 µM) SRB screen; type: cell-based, human; conditions: leukaemia, 48 h
SK-MEL-28 = test: NCI single dose (10 µM) SRB screen; type: cell-based, human; conditions: melanoma, 48 h
RPMI-8226 = test: NCI single dose (10 µM) SRB screen; type: cell-based, human; conditions: leukaemia, 48 h
NCI-H460 = test: NCI single dose (10 µM) SRB screen; type: cell-based, human; conditions: non-small cell lung cancer, 48 h
Escherichia coli = test: Agar well diffusion method
Bacillus subtilis = test: Agar well diffusion method
K-562 = test: NCI single dose (10 µM) SRB screen; type: cell-based, human; conditions: leukaemia, 48 h
SNB-75 = test: NCI single dose (10 µM) SRB screen; type: cell-based, human; conditions: CNS cancer, 48 h
786-0 = test: NCI single dose (10 µM) SRB screen; type: cell-based, human; conditions: renal cancer, 48 h
M14 = test: NCI single dose (10 µM) SRB screen; type: cell-based, human; conditions: melanoma, 48 h
NCI 60 cancer cell lines = test: NCI single dose (10 µM) SRB screen, mean over panel; type: cell-based, human; conditions: mean over 60 cell lines, 48 h
MALME-3M = test: NCI single dose (10 µM) SRB screen; type: cell-based, human; conditions: melanoma, 48 h
IGROV1 = test: NCI single dose (10 µM) SRB screen; type: cell-based, human; conditions: ovarian cancer, 48 h
MDA-MB-468 = test: NCI single dose (10 µM) SRB screen; type: cell-based, human; conditions: breast cancer, 48 h
SK-MEL-2 = test: NCI single dose (10 µM) SRB screen; type: cell-based, human; conditions: melanoma, 48 h
RXF 393 = test: NCI single dose (10 µM) SRB screen; type: cell-based, human; conditions: renal cancer, 48 h
HL-60(TB) = test: NCI single dose (10 µM) SRB screen; type: cell-based, human; conditions: leukaemia, 48 h
HCT-15 = test: NCI single dose (10 µM) SRB screen; type: cell-based, human; conditions: colon cancer, 48 h

For `CC1=C(C(=O)OCc2ccccc2)C(c2cccc(C#N)c2)C(C(=O)OCc2ccccc2)=C(C)N1` [Compound 1g, Dibenzyl 4-(3-cyanophenyl)-2,6-dimethyl-1,4-dihydropyridine-3,5-dicarboxylate], the “GI% OVCAR-3” value (OVCAR-3) was 23%, the zone of inhibition at 1000 µg/mL (Aspergillus flavus; Aspergillus flavus, 24 h, read-out: Diameter of inhibition zone, A. flavus) was 14 mm and the “% activity index, A. flavus” value (Aspergillus flavus; relative to clotrimazole) was 56%. For the same compound, the “GI% TK-10” value (TK-10) was “– (Only GI% ≥ 10 are shown)”, the “GI% NCI-H322M” value (NCI-H322M) was 15% and the “GI% NCI-H23” value (NCI-H23) was 23%. For the same compound, the “GI% KM12” value (KM12) was 45%, the “GI% SK-OV-3” value (SK-OV-3) was “– (Only GI% ≥ 10 are shown)” and the “GI% CCRF-CEM” value (CCRF-CEM) was 54%. For the same compound, the zone of inhibition at 1000 µg/mL (Staphylococcus aureus; Staphylococcus aureus, 24 h, read-out: Diameter of inhibition zone, S. aureus) was 15 mm, the “% activity index, S. aureus” value (Staphylococcus aureus; relative to ciprofloxacin) was 62.5% and the “GI% SNB-19” value (SNB-19) was 32%. For the same compound, the “GI% SN12C” value (SN12C) was 32%, the “GI% UO-31” value (UO-31) was 34% and the “GI% BT-549” value (BT-549) was “– (Only GI% ≥ 10 are shown)”. For the same compound, the zone of inhibition at 1000 µg/mL (Candida albicans; Candida albicans, 24 h, read-out: Diameter of inhibition zone, C. albicans) was 10 mm, the “% activity index, C. albicans” value (Candida albicans; relative to clotrimazole) was 37% and the “GI% NCI-H226” value (NCI-H226) was 46%. The “GI% NCI-H522” value (NCI-H522) was 46%, the “GI% HCT-116” value (HCT-116) was 76% and the “GI% OVCAR-5” value (OVCAR-5) was 19%. The “GI% U251” value (U251) was 49%, the “GI% HCC-2998” value (HCC-2998) was “– (Only GI% ≥ 10 are shown)” and the “GI% ACHN” value (ACHN) was 52%. For the same compound, the “GI% PC-3” value (PC-3) was 76%, the “GI% T-47D” value (T-47D) was 53% and the “GI% COLO 205” value (COLO 205) was 47%. The “GI% CAKI-1” value (CAKI-1) was 56%, the “GI% HS578T” value (HS578T) was 35% and the “GI% SF-295” value (SF-295) was 56%. The “GI% UACC-257” value (UACC-257) was 36%, the zone of inhibition at 1000 µg/mL (Pseudomonas aeruginosa; Pseudomonas aeruginosa, 24 h, read-out: Diameter of inhibition zone, P. aeruginosa) was 16 mm and the “% activity index, P. aeruginosa” value (Pseudomonas aeruginosa; relative to ciprofloxacin) was 69.6%. For the same compound, the “GI% MCF7” value (MCF7) was 53%, the “GI% UACC-62” value (UACC-62) was 38% and the “GI% HOP-92” value (HOP-92) was 42%. The “GI% OVCAR-4” value (OVCAR-4) was 33%, the “GI% SR” value (SR) was 57% and the “GI% SK-MEL-28” value (SK-MEL-28) was 34%. For the same compound, the “GI% RPMI-8226” value (RPMI-8226) was 65%, the “GI% NCI-H460” value (NCI-H460) was 64% and the zone of inhibition at 1000 µg/mL (Escherichia coli; Escherichia coli, 24 h, read-out: Diameter of inhibition zone, E. coli) was 10 mm. The “% activity index, E. coli” value (Escherichia coli; relative to ciprofloxacin) was 38.5%, the zone of inhibition at 1000 µg/mL (Bacillus subtilis; Bacillus subtilis, 24 h, read-out: Diameter of inhibition zone, B. subtilis) was 11 mm and the “% activity index, B. subtilis” value (Bacillus subtilis; relative to ciprofloxacin) was 47.8%. For the same compound, the “GI% K-562” value (K-562) was 69%, the “GI% SNB-75” value (SNB-75) was 23% and the “GI% 786-0” value (786-0) was 32%. The “GI% M14” value (M14) was 35%, the “Mean GI%” value (NCI 60 cancer cell lines) was 41% and the “GI% MALME-3M” value (MALME-3M) was 32%. For the same compound, the “GI% IGROV1” value (IGROV1) was 45%, the “GI% MDA-MB-468” value (MDA-MB-468) was 62% and the “GI% SK-MEL-2” value (SK-MEL-2) was 19%. The “GI% RXF 393” value (RXF 393) was 36%, the “GI% HL-60(TB)” value (HL-60(TB)) was 62% and the “GI% HCT-15” value (HCT-15) was 72%.
